Assay results from patent US9283242B2, “Uses of dihydro bases” (priority 2013, dated 2016).
Entries after “also recorded” stand apart in the source; their conditions may differ.

Experiments:
[1] = tested on: HK82 (AlkB−) E. coli cells; assay type: cell-based; conditions: for Polymerase bypass efficiency, Avg.: HK82, percentage relative to unmodified control genome, triplicate
[2] = tested on: HK81 (AlkB+) E. coli cells; assay type: cell-based; conditions: HK81; percentage relative to unmodified control genome
Method: (A) A 16mer oligonucleotide containing KP1212 (SEQ ID NO: 1) (or controls) at a specific site was chemically synthesized and ligated into the genome of an M13 bacteriophage. (B) The KP1212-containing M13 genomes were replicated within E. coli cells. Progeny were analyzed to characterize the amount and the type of nucleic acid base placed opposite the lesion during replication. The relative reduction in lesion vs. non-lesion competitor progeny formation was used as an estimate of the extent to which KP1212 and m3C inhibited DNA replication. (C) The KP1212-containing M13 genomes were used as templates for in vitro polymerase extension assays, carried out at 72° C., using the high-fidelity DNA polymerase PfuTurbo. (D) Bypass efficiency (CRAB assay) of KP1212, m3C, C in HK81 (AlkB^+) and HK82 (AlkB^−) E. coli cells. m3C and undamaged C were used as controls. Genomes were made and normalized to one another before being combined with a competitor genome. Each mixture was transformed into the corresponding cell strain in triplicate, and bypass efficiency was calculated by using the undamaged C genome as 100% bypass, with error bars representing one standard deviation. (E) Mutagenesis (REAP assay) of KP1212, m3C, and C in HK82 (AlkB^−) E. coli cells. m3C, undamaged C, and an approximately equimolar mixture of genomes carrying unmodified G/A/T/C bases at the site of inquiry (denoted as GATC) were used as controls. Genomes containing the lesions of interest were transfected into E. coli in triplicate.
All E. coli strains used in this work contain the F′ episome, which enables infection by M13 phage. GW5100 strain was used for large scale preparation of M13 phage DNA, SCS 110 (JM110, end Al) was used for amplification of progeny phage post-electroporation, and NR9050 was the strain of choice for double agar plating with X-GAL for blue-clear detection of plaques. The E. coli strains used to replicate lesion-containing phage were HK81 (as AB1157, but nalA) and HK82 (as AB1157, but nalA alkB22; AlkB-deficient).

[3] = tested on: HK82 (AlkB−) E. coli cells; assay type: cell-based; conditions: for Mutagenicity, Average % A / Mutagenicity, Average % C / Mutagenicity, Average % G / Mutagenicity, Average % T: (a) HK82; for base pairing / mutagenicity (in words): FIGS. 18C, 18E, m3C in repair deficient cells
[4] = Variable temperature 1H NMR, tautomerism in DMF-d7; assay type: physicochemical; conditions: for tautomerism by Variable Temperature NMR: DMF-d7, 20 to −60° C.
Method: At 20° C., exchangeable protons on the base moiety are observed at 7.58 ppm and 4.14 ppm (FIG. 10). At −60° C., exchangeable protons on the base moiety are observed at 8.70 ppm, 8.08 ppm, and 4.68 ppm (FIG. 11). Protons with a chemical shift of 8.70, 8.08, and 7.58 ppm likely correspond to enolic, amido, or imino protons, while protons with a chemical shift of 4.68 and 4.14 ppm likely correspond to amino protons. The expected chemical shifts for enolic, amido, and imino protons are relatively close, and thus these species cannot be assigned at this stage. […] Only the existence of multiple tautomeric species would explain the presence of three exchangeable protons resonances. […] Based on their chemical structures, the keto-amino tautomer will pair with guanine and the keto-imino/enol-imino tautomers can pair with adenine.
All NMR experiments were performed on Varian 500 MHz NMR spectrometers. The deuterated solvent DMF-d7 was from Cambridge Isotope Laboratories, Andover, Mass., USA. 5-Aza-5,6-dihydro-2′-deoxycytidine (KP1212) nucleoside was from Berry & Associates Inc., Dexter, Mich., USA. The NMR sample was prepared by dissolving 10 mg of KP1212 nucleoside in 1.0 ml DMF-d7 (final concentration ˜44 mM). ^1H NMR spectra were reported in parts per million (ppm) and were referenced to the signals for DMF-d7 (8.03 ppm). ^13C NMR spectra were referenced to the signals for DMF-d7 (163.15 ppm).
FIG. 14A depicts the structures of all five possible tautomers (1 to 5) of KP1212, among which the three active protons on the nucleobase shift among the 02, N3, N4 and N5 positions. […] Before assigning the three active protons on the nucleobase moiety, all non-exchangeable protons in KP1212 and the two hydroxyl protons on the 3′ and 5′ positions were identified by carrying out 1D (^1H and ^13C) and 2D (COSY, HSQC, and HMBC) NMR experiments. The NMR signals of the three active protons in the base portion of KP1212 were studied at different temperatures. […] When the temperature was decreased to −50° C., the three broad peaks resolved into six distinct proton resonances (FIG. 14B, denoted as peaks i-vi), which could be assigned to imino (designated as e and n in FIGS. 14A to 14C), amido (designated as g and m), enolic (designated as c and d) or amino (designated as a, b, f, h, i, j, k, l, and o) protons.
At −50° C. six distinct proton resonances (FIG. 14B, i to vi) were observed, attributable to protons bound either to nitrogen or to oxygen atom (for only the base portion of the KP1212 molecule). Integration of the six broad peaks permitted estimation of the relative ratios of the five tautomeric species that exist in solution (FIG. 14A).
The NMR data also allowed the determination of the relative ratios of the tautomeric species present in the DMF solution at −50° C. (FIGS. 14B and 14C). Several peaks in the NMR spectrum partially overlapped (e.g., iv and v), so the raw data were reconstructed using a least squares fit algorithm (FIG. 16). The reconstructed peaks from the simulation were integrated, yielding an estimate of the relative amounts of each of the proton resonances in the spectrum. […] 2) Based on the peak assignments from part 1), a system of linear equations was set up using the relative amounts of tautomers as unknown variables (FIG. 14D). Each NMR peak provided a linear equation whereby the peak area should be equal to the sum of all tautomers (as relative amounts) containing protons that contribute to that peak. The solutions of these equations yielded the relative ratios of the tautomeric species present in DMF at −50° C. (FIG. 14D).

[5] = in vitro and in vivo replication of a single-stranded vector containing a single KP1212
[6] = −50° C. in DMF, deconvoluted from NMR spectrum

SMILES | replication block / toxicity to replication ([1]; E. coli (FIG. 18D), for m3C cells that lack AlkB) | Polymerase bypass efficiency, Avg. [1] [%] | Polymerase bypass efficiency, Avg. [2] [%] | Mutagenicity, Average % A [3] [%] | Mutagenicity, Average % C [3] [%] | Mutagenicity, Average % G [3] [%] | Mutagenicity, Average % T [3] [%] | base pairing / mutagenicity (in words) [3] | in vivo mutation frequency ([3]; frequency of pairing with any non-G base (A)) | paired with A [3, 5] [%] | paired with G [3, 5] [%] | pairing with A in vivo ([3]; in vivo, E. coli (FIG. 18E)) [%] | pairing with G in vivo ([3]; in vivo, E. coli (FIG. 18E)) [%] | mutation frequency ([3]; observed in vitro and in vivo in this study) [%] | tautomerism by Variable Temperature NMR [4] | relative proportion of enol tautomer 1 [4, 6] [%] | relative proportion of enol tautomer 2 [4, 6] [%] | relative proportion of keto tautomers 3 to 5 collectively [4, 6] [%] | tautomerism by Variable Temperature NMR ([4]; listed as deoxycytidine)
NC1=NC(=O)N([C@H]2C[C@H](O)[C@@H](CO)O2)CN1 [KP1212, 5-aza-5,6-dihydro-2′-deoxycytidine] | not to be a replication block | 91 | 128 | 0.0 | 89.1 | 0.4 | 10.5 | mutagenic both in vitro and in vivo | approximately 10% | 10 | 90 | 10 | 90 | 10 | shows multiple tautomerism; also recorded: different tautomeric forms | 51 | 38 | 11 | 
Nc1ccn([C@H]2C[C@H](O)[C@@H](CO)O2)c(=O)n1 [dC, deoxycytidine] |  | 100 | 100 | 0.0 | 100.0 | 0.0 | 0.0 | only pairs with G |  |  |  |  |  |  | does not show multiple tautomerism; also recorded: single tautomerism |  |  |  | only one tautomeric form; also recorded: no imino or enol tautomer exists
